Reference: ChEMBL document CHEMBL4316627, “Modulation of the NOD-like receptors NOD1 and NOD2: A chemist's perspective” (Bioorg Med Chem Lett, 2019)
Each block holds one compound with its values, some of them ahead of it.

Legend:
[1] = molecular target: Nucleotide-binding oligomerization domain-containing protein 2 (Homo sapiens, UniProt Q9HC29); experiment: Binding affinity to human NOD2 LRR domain expressed in Escherichia coli by SPR assay
[2] = Binding affinity to Jack bean Concanavalin A by SPR assay; parameters: species or system Canavalia ensiformis
[3] = molecular target: T1, Nucleotide-binding oligomerization domain-containing protein 1 (Homo sapiens, UniProt Q9Y239); experiment: Binding affinity to NOD1 LRR domain (unknown origin)
T1 sequence (Q9Y239 whole entry): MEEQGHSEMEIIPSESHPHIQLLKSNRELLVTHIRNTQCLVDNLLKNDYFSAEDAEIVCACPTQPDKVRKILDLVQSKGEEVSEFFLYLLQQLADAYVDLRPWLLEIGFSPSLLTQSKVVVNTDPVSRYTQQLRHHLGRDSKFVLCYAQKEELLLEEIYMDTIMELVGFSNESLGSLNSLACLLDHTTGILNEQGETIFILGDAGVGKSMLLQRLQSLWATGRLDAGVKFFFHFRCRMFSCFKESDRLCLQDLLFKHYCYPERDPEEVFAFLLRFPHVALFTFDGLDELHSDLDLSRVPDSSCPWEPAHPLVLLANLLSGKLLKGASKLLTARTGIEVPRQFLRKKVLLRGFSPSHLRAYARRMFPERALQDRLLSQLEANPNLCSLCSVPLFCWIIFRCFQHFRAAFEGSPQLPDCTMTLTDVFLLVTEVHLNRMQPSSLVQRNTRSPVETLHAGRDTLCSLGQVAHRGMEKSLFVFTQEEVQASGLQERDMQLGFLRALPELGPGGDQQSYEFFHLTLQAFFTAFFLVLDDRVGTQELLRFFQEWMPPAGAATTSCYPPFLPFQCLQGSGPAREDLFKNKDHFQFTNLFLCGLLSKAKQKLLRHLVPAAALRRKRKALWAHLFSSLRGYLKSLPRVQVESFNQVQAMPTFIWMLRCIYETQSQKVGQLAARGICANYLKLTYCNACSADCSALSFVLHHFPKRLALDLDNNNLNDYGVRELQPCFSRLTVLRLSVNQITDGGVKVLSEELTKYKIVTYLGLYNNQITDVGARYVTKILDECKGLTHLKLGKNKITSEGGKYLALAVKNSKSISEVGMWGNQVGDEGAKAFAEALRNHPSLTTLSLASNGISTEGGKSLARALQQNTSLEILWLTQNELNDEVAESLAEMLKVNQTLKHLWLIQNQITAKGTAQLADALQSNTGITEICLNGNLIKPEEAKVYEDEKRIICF

Jacalin = molecular target: T2, Jacalin (Artocarpus heterophyllus, UniProt Q38720); experiment: Binding affinity to jackfruit jacalin by SPR assay
T2 sequence (Q38720 whole entry): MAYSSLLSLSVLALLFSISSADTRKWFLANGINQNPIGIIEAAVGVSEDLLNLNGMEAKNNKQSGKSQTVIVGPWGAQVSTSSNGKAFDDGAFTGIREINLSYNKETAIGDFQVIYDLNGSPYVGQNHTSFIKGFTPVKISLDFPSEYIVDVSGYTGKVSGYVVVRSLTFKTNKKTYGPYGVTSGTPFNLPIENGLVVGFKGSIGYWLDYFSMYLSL

Sequence of Nucleotide-binding oligomerization domain-containing protein 2 (Q9HC29 whole entry, the tested form may be a part): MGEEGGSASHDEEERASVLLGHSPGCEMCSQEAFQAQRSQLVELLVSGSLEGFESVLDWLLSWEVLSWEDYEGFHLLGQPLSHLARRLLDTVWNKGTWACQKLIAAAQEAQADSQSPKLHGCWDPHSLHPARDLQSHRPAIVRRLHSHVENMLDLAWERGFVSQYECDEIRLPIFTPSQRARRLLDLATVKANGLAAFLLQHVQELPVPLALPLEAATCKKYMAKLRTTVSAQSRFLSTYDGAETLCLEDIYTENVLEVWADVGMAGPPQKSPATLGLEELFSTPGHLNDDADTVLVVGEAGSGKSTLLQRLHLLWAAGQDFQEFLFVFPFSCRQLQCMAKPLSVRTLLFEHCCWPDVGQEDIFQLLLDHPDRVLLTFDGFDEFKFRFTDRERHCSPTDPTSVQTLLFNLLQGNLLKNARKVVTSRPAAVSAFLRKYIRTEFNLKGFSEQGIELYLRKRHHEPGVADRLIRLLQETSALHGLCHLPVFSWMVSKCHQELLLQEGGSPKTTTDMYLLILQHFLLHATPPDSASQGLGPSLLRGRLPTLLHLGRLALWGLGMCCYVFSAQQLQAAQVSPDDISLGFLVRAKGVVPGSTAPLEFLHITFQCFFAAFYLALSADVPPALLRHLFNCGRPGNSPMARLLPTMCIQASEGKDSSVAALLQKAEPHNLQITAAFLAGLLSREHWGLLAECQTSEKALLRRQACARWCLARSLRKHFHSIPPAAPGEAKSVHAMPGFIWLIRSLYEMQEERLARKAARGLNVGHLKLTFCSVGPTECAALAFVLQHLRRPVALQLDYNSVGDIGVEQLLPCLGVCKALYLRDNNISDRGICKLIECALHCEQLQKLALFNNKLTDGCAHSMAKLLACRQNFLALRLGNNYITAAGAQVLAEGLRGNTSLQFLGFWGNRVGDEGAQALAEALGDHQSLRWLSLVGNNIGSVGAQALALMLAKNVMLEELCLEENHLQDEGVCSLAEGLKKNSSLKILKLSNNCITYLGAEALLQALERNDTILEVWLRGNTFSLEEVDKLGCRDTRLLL

Kd [1]: 0.2 µM
SMILES: CC(=O)N[C@H]1C(O)O[C@H](CO)[C@@H](O)[C@@H]1O[C@H](C)C(=O)N[C@@H](C)C(=O)N[C@H](CCC(=O)O)C(N)=O (some centres undefined) [MURAMYL DIPEPTIDE]

Kd [2]: 200 µM
SMILES: OC[C@H]1OC(O)[C@@H](O)[C@@H](O)[C@@H]1O (stereo partly drawn) [D-MANNOSE]

Kd [3]: 35 µM
SMILES: C[C@H](N)C(=O)N[C@H](CCC(=O)N[C@@H](CCC[C@@H](N)C(=O)O)C(=O)O)C(N)=O

Kd (Jacalin): 16 µM
SMILES: O=C[C@H](O)[C@@H](O)[C@@H](O)[C@H](O)CO [GALACTOSE]
